Source: US11179474B1, “Nanoparticle-based liver-targeting therapy and imaging” (priority 2015, dated 2021)
Where no end group is shown, it is not given here.

Tests used:
HepG2 = assay: MTT cell viability assay, payload-carrying LacLL nanoparticles vs free drug; type: cell-based, human; settings: for IC50: HepG2, concentration based on drug amount, FIG. 7: 72 h after treatment
Procedure: The human hepatocellular carcinoma cell line HepG2 was used in the assay.
HepG2 cells were grown in a T-75 flask. For the transfer of the cell the medium was removed from the flask and the cells were trypsinated for 5 minutes. The cells were collected in a Falcon tube and diluted with complete cell medium. The cell counting was conducted in a Neubauer chamber. A cell solution was prepared to seed 4000 cells per well (200 μL per well). The microtiter plate was incubated for 24 h at 37° C.
For each NP and drug, formulations in cell medium were prepared. The compounds were tested in different concentrations (0.01, 0.05, 0.2, 1, 5, 25 and 125 μM based on drug amount). For the treatment, the cell medium was removed from all wells and exchanged for drug formulations. 200 μl of treatments per triplicate was added to each well. The microtiter plates were incubated for 24 h, 48 h and 72 h at 37° C.
1.5 mL MTT solution (8.0 mg in 1.6 mL DMSO) was diluted with complete cell medium (phenol-red free). The treatment cell medium was removed from the microtiter plate, the wells were washed with 100 μL PBS and 100 μL of the MTT reactive solution was added to each well. After one hour incubation at 37° C. the MTT solution was removed and 100 μL DMSO was added to dissolve the formazan dye. Absorbance was measured at 570 nm.
Data were analysed using OriginPro8. The normalized data were plotted and the curve was fitted using a non-linear regression curve fit (sigmoidal dose-response curve with variable slope). The Absolute IC50 values were obtained by interpolation.

HCC cells = assay: In vitro targeting of GNPs to HCC cells (counts per field at 20x magnification); type: cell-based; settings: relative to base GNP lacking the peptide
From the text: (SEQ ID NO: 1), via its N-terminus (approx. 4 peptide molecules per nanoparticle).
Several base/peptide targeted GNPs were screened in vitro. GNPs having a mixed corona comprising galactose-C2-SH (Gal-C2) ligands and HSPEG8COOH were synthesised according to methodology analogous to that described above in Examples 1 and 2, with however galactose-C2-SH replacing glucose-C2-SH and HSPEG8COOH (also abbreviated SH-EG6-COOH or SH—(OCH2CH2)6-COOH) replacing the amino linker NH2-EG6-SH.
The glypican-3 peptide described in U.S. Pat. No. 8,388,937B2 (the contents of which are expressly incorporated herein by reference)—see SEQ ID NO: 1 thereof, which has the amino acid sequence: […] (SEQ ID NO: 1) was linked to the terminal COOH group of a proportion of the HSPEG8COOH ligands via the N-terminus of said peptide. In a “high loading” GNP construct (see row 1 in the table below), approximately 4 peptides were linked per nanoparticle core. The “high loading” Au@Gal-C2:HSPEG8COOH:HSPEG8CONH[…] The “low loading” Au@Gal-C2:HSPEG8COOH:HSPEG8CONH[…]

[1] = target: T1, glypican-3 (on HCC cells) (UniProt P51654 25-554); assay: in vitro targeting of GNPs to HCC cells, relative to base nanoparticle lacking the peptide
T1 construct: whole, on cells; also called GLY-3

[2] = target: T1, glypican-3 (on HCC cells); assay: in vitro targeting of GNPs to HCC cells, relative to base GNP lacking the peptide
[3] = target: T1, glypican-3 (on HCC cells); assay: in vitro targeting of GNPs to HCC cells, counts per field at 20x magnification, relative to base GNP lacking the peptide

T1 sequence (P51654 25-554 limits assumed, form in doubt): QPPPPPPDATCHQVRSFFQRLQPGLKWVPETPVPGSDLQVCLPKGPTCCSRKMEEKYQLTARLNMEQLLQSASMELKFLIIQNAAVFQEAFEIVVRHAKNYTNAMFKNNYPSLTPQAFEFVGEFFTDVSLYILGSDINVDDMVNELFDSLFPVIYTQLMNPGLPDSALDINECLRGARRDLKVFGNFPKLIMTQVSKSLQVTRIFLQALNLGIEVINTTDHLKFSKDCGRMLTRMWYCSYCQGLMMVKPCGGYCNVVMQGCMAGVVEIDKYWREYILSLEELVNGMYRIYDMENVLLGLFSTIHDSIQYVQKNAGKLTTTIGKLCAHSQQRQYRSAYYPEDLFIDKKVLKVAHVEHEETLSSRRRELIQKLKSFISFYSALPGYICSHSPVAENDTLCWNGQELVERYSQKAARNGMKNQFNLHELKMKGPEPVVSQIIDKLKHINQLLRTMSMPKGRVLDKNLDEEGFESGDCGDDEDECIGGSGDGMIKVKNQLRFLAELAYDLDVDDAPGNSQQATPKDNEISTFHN

Molecule: platinum-(IV)-succinate
- IC50 (HepG2): 38.6 µM
- IC50 (HepG2; listed as Pt(IV)-succinate): 38.6 µM

Molecule: GNP-GalC2-HSPEG8COOH-HSPEG8CONHRLNVGGTYFLTTRQ ″low loading″ (not fully specified (N-terminus); printed as GNP-GalC2-HSPEG8COOH-HSPEG8CONHRLNVGGTYFLTTRQ ″low loading″; also: on gold nanoparticle with galactose-C2 corona)
- Fold-targeting (over base particle) (HCC cells; listed as “low loading” Au@Gal-C2:HSPEG8COOH:HSPEG8CONHRLNVGGTYFLTTRQ): approximately 4.6 fold

Molecule: GNP-GalC2(50)-AL(50)-(Ac)YFLTTRQ
- Fold-targeting (over base particle) (HCC cells; listed as Au@GalC2:AL:AL-(Ac)-YFLTTRQ): approximately 5 fold

Molecule: COc1cccc2c1C(=O)c1c(O)c3c(c(O)c1C2=O)C[C@@](O)(C(=O)CO)C[C@@H]3O[C@H]1C[C@H](N)[C@H](O)[C@H](C)O1 [Doxorubicin, doxorubicin]
- cytotoxicity, free drug compared with pay-loaded nanoparticle (HepG2; HepG2, MTT): slightly higher cytotoxicity

Molecule: GNP-GalC2-HSPEG8COOH-HSPEG8CONHRLNVGGTYFLTTRQ ″high loading″ (not fully specified (N-terminus); also: on gold nanoparticle with galactose-C2 corona)
- Fold-targeting (over base particle) (HCC cells; listed as “high loading” Au@Gal-C2:HSPEG8COOH:HSPEG8CONHRLNVGGTYFLTTRQ): approximately 7 fold

B1: GNP-GalC2(50)-AL(50)-(Ac)YFLTTRQ (peptide)
peptide: YFLTTRQ
modifications: not fully specified (N-terminus); printed as GNP-GalC2(50)-AL(50)-(Ac)YFLTTRQ; also: linked via amino linker NH2-EG6-SH to gold nanoparticle with galactose-C2 corona
notes: Gold nanoparticle with a corona of galactose-C2-SH and amino linker in approximately 50:50 ratio; also called Au@GalC2:AL:AL-(Ac)-YFLTTRQ
- Fold-targeting (over base particle) [1]: 5 fold

B2: GNP-GalC2-HSPEG8COOH-HSPEG8CO… ″low loading″ (peptide)
peptide: RLNVGGTYFLTTRQ
modifications: not fully specified (N-terminus); printed as GNP-GalC2-HSPEG8COOH-HSPEG8CONHRLNVGGTYFLTTRQ ″low loading″; also: on gold nanoparticle with galactose-C2 corona
notes: Same construct as the high loading GNP but with fewer peptides per nanoparticle; also called "low loading" Au@Gal-C2:HSPEG8COOH:HSPEG8CO… GNPs
- Fold-targeting (over base particle) [2]: 4.6 fold

B3: GNP-GalC2-HSPEG8COOH-HSPEG8CO… ″high loading″ (peptide)
peptide: RLNVGGTYFLTTRQ
modifications: not fully specified (N-terminus); also: on gold nanoparticle with galactose-C2 corona
notes: Gold nanoparticle with a corona of galactose-C2 and HSPEG8COOH ligands; Approximately 4 peptides per nanoparticle core, so the copy number is approximate; also called "high loading" Au@Gal-C2:HSPEG8COOH:HSPEG8CO… GNPs
- Fold-targeting (over base particle) [3]: 7.1 fold
